Laboratory results as given in patent US9206241B2, “Modified prokaryotic ubiquitin-like protein and methods of use thereof” (priority 2012, dated 2015).

Columns and labels:
[1] = target: Dop (deamidase of Pup), Dop-His6 (Mycobacterium tuberculosis, UniProt P9WNU9); settings: for Km / kcat: Dop kinetics with synthetic substrate, n.a. = no activity
Source text: SoftMax Pro (Molecular Devices) was used to measure the data and GraphPad Prism was used to fit the kinetic data.

lysates of E. coli = assay: Hydrolysis of substrate in E. coli lysates; type: biochemical

Chain of Dop (deamidase of Pup), Dop-His6 (P9WNU9 whole entry): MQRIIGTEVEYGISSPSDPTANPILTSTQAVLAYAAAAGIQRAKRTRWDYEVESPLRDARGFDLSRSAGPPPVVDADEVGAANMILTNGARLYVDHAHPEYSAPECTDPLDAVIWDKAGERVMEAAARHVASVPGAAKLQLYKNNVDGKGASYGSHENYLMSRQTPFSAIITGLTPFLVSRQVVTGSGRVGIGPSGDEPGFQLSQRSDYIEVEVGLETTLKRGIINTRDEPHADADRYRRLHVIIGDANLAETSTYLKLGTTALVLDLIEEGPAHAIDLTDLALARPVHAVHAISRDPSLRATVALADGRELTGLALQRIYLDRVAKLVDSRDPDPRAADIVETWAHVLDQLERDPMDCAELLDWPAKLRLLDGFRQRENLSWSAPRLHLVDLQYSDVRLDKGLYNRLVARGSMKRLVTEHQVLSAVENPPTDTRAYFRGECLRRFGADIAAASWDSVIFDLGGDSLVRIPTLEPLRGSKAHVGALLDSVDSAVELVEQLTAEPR

## EETDDLLDEIDDVLEENAEDFVRAYVQKGG-Glu(AMC) [1b]
[1]
  Km: 0.75 ± 0.08 µM
  kcat: 0.0113 ± 0.00033 s⁻¹

## MAQEQTKRGGGGGDDDDIAGSTAAGQERREKLTEETDDLLDEIDDV LEENAEDFVRAYVQKGG-Glu(AMC) [1a]
[1]
  Km: 0.65 ± 0.07 µM
  kcat: 0.01 ± 0.00033 s⁻¹
[1]; increase in fluorescence over time
  hydrolytic activity of Dop on the substrate (cleavage of AMC): showed hydrolytic activity
Lysates of E. coli
  hydrolysis of substrate in lysate: could not hydrolyze
